Entries after “also recorded” stand apart in the source; their conditions may differ.
Key:
[1] = biological target: T1, IkappaB kinase β (IKK-β) (Homo sapiens, UniProt O14920); test: IKK-β inhibition, Z'-LYTE Kinase Assay Kit-Ser/Thr 5 Peptide (FRET); format: biochemical
T1 construct: purchased Invitrogen
T1 sequence (O14920 1-756): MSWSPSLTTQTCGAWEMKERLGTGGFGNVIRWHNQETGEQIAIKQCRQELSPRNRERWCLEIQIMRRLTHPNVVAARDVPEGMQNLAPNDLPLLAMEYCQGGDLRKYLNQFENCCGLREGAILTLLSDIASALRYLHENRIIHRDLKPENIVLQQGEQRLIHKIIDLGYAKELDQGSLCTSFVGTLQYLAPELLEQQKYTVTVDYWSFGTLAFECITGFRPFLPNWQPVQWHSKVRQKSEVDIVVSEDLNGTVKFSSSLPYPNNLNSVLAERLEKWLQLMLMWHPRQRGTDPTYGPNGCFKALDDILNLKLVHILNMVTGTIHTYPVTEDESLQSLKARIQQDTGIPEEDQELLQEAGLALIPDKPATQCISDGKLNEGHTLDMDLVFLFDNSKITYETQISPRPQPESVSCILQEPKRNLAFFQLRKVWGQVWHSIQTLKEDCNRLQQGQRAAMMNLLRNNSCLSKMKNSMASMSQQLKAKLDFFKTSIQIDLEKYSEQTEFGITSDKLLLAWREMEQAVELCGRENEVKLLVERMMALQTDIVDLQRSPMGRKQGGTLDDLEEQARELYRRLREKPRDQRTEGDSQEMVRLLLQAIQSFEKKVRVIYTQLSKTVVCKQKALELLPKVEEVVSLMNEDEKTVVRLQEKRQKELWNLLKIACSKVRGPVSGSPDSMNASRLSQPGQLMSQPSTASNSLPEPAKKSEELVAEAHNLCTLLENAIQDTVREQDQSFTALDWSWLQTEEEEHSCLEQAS
Method: IKK-β phosphorylates the inhibitory IκB protein associated with NE-κB. Phosphorylation results in the dissociation of IκB from NE-κB, allowing NE-κB to migrate into the cell nucleus where it can activate the transcription of at least 150 genes. The Z9-LYTE™ Kinase Assay Kit-Ser/Thr 5 Peptide is designed to screen for potential IKK-β inhibitory effect using fluorescence resonance energy transfer (FRET) between coumarin and fluorescein for detection by a fluorometer.
The assay was performed according to Z9-LYTE™ KINASE ASSAY KIT-SER/THR 5 PEPTIDE protocol provided by Invitrogen [Invitrogen, Z′-LYTE™ Kinase Assay Kit-Ser/Thr 5 Peptide Protocol, O-062187-r1 US 0405]. Based on the IKK-β certificate of the kit, a kinase concentration of 500 ng/ml was chosen. Km for ATP 9.4 μM was chosen according to an optimization for the LanthaScreen™ kinase assay [http://tools.invitrogen.com/content/sfs/manuals/IKBKB_%28IKK_beta%29_LanthaScreen_Activity.pdf].
(§1) A fluorescence plate reader (Appliskan, Thermo Scientific) was used to detect fluorescence emission signals according to the following parameters:
(§2) Selected alkaloids of the invention prepared in example 1 were tested in 5 times dilutions to establish the 50% inhibitory concentration (IC-50).

[2] = biological target: T2, PDE5A (Homo sapiens, UniProt O76074); test: PDE5A Assay Kit, fluorescence polarization; format: biochemical; settings: PDE5
T2 construct: purchased BSP Bioscience 60350
Method: Inhibition of PDE5 blocks hydrolysis of cGMP, thereby increasing levels of cGMP. The PDE5A Assay Kit is designed for identification of PDE5A inhibitors using fluorescence polarization. The assay is based on the binding of a fluorescent nucleotide monophosphate generated by PDE5A to the binding agent.
The assay was performed according to the protocol of the PDE5A assay provided by BSP Bioscience [BSP Bioscience, Data sheet PDE5A Assay Kit, Catalog #60350].
as §1
Test Compounds • Selected alkaloids of the invention prepared in example 1 were tested in 5 times dilutions to establish the 50% inhibitory concentration (IC-50).

[3] = biological target: T3, PDE4A1A (Homo sapiens, UniProt P27815); test: PDE4A1A Assay Kit, fluorescence polarization; format: biochemical; settings: PDE4
T3 construct: purchased BSP Bioscience 60340
T3 sequence (P27815 1-647 isoform P27815-4): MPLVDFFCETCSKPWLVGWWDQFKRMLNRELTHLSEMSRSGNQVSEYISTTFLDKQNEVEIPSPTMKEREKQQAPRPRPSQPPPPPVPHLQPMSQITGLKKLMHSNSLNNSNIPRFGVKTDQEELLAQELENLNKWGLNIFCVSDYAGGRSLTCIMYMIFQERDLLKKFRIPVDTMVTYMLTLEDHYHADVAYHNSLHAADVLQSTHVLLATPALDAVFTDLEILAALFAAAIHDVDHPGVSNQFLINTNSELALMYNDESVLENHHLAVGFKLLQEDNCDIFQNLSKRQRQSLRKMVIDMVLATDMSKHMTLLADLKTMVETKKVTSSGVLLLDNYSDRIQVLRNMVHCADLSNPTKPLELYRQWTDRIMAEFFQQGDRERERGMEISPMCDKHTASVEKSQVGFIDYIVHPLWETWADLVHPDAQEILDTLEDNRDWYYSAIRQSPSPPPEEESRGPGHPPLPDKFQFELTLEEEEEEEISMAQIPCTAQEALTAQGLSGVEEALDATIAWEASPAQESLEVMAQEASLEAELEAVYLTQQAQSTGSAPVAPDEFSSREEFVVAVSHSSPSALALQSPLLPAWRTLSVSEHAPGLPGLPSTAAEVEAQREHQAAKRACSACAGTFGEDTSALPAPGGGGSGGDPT
Method: Inhibition of PDE4 blocks hydrolysis of cAMP, thereby increasing levels of cAMP. The PDE4A1A Assay Kit is designed for identification of PDE4A1A inhibitors using fluorescence polarization. The assay is based on the binding of fluorescent AMP generated by PDE4A1A to the binding agent.
The assay was performed according to the protocol of the PDE4A1A assay provided by BSP Bioscience [BSP Bioscience, Data sheet PDE4A1A Assay Kit, Catalog #60340].
as §1, §2

[4] = tested on: hyperlipidemic guinea pigs; test: Hypocholesterolemic effect in guinea pigs on high fat diet; format: in vivo, guinea pig; settings: 10 mg/kg oral daily, 28 days
Method: Male Dunkin-Hartley guinea pigs weighing 300+/−30 g were acclimated one week before the in-life phase of the experiment. The study diet (Research Diets Inc, New Brunswick, N.J., USA) contained 15% corn oil and 0.25% cholesterol. A daily oral dose of 2000 mg/kg of RAP2 corresponding 9 μg/kg of Ribetril A and 82 μg/kg total Ribetrils as well as 632 μg/kg total Glucoindols was administered orally at a dosing volume of 10 mL/kg. A daily oral dose of 2000 mg/kg of RAP4 corresponding to 112 μg/kg of Ribetril A and 492 μg/kg total Ribetrils as well as 240 μg/kg total Glucoindols was administered orally at a dosing volume of 10 mL/kg. The positive control atorvastatin (10 mg/kg) and vehicle (0.5% methylcellulose) were each administered orally at a dosing volume of 10 mL/kg. […]
After fasting overnight, blood samples were obtained from the retro-orbital sinus of each animal 5 min before initial test substance and/or vehicle administration (pre-treatment) and 24 hours after dosing on days 14 and 28 (post-treatment). The serum total cholesterol (TC), low density lipoprotein cholesterol (LDL-C), high density lipoprotein cholesterol (HDL-C) and triglycerides (TG) were determined by an enzymatic method (Wako total cholesterol, LDL-C, HDL-C & TG diagnostic kit and Toshiba Automatic Analyzer Model TAB-120FR).

[5] = tested on: BKS Cg-Lepr db/Lepr db mice; test: Hypoglycemic effect in NIDDM mice; format: in vivo, mouse; settings: oral daily 14 days (RAP4 2000 mg/kg, metformin 300 mg/kg), day 14 post dosing
Method: Male non-insulin dependent diabetic mellitus (NIDDM) mice (BKS Cg-Lepr db/Lepr db) weighing 50+/−5 g were used at age of 12-13 weeks. A daily oral dose of 2000 mg/kg of RAP4 corresponding to corresponding to 112 μg/kg of Ribetril A and 492 μg/kg total Ribetrils as well as 240 μg/kg total Glucoindols was administered orally at a dosing volume of 10 mL/kg to 12 animals for a total of 14 consecutive days. The positive control of metformin (300 mg/kg) and vehicle (2% Tween 80) were each administered orally at a dosing volume of 10 mL/kg to groups of 6 animals once daily for a total of 14 consecutive days. Serum glucose levels were measured by means of an automated analyzer (TBA-120FR, Toshiba) and serum insulin by ELISA at zero min (pre-treatment) on Day 1, and at 90 min after the daily dosing (post-treatment) on Day 7 and Day 14.

SMILES: N#C/C(=C\CO[C@@H]1O[C@H](CO)[C@@H](O)[C@H](O)[C@H]1O)COC(=O)/C=C/c1ccc(O)c(O)c1 [Ribetril A, (E)-(E)-2-cyano-4-(((2R,3R,4S,5S,6R)-3,4,5-trihydroxy-6-(hydroxymethyl)tetrahydro-2H-pyran-2-yl)oxy)but-2-en-1-yl 3-(3,4-dihydroxyphenyl)acrylate]
- times lower IC-50 as compared to Ribetril B [1]: 48 times
- times lower IC-50 as compared to Ribetril C [1]: 118 times
- times lower IC-50 as compared to Ribetril B [2]: 3 times
- times lower IC-50 as compared to Ribetril C [2]: 8 times
- times lower IC-50 as compared to Ribetril B [3]: 5 times
- times lower IC-50 as compared to Ribetril C [3]: 20 times

SMILES: CC(C)c1c(C(=O)Nc2ccccc2)c(-c2ccccc2)c(-c2ccc(F)cc2)n1CC[C@@H](O)C[C@@H](O)CC(=O)O [atorvastatin]
- effect on triglycerides [4]: did not significantly reduce triglycerides; also recorded: did not display a significant decreasing effect on triglyceride levels

SMILES: CN(C)C(=N)N=C(N)N [metformin]
- serum glucose levels relative to vehicle control [5]: significant decrease
